According to patent publication US20100267720A1, “Crystalline Forms of 2-Hydroxy-3- [5- (Morpholin- 4- Ylmethyl) Pyridin-2-YL] IH- Indole- 5 -Carbonitrile Citrate” (ASTRAZENECA AB, priority 2007, published 2010):

Key:
[1] = Hygroscopicity by Dynamic Vapour Sorption Analysis (DVS); format: physicochemical; settings: for moisture uptake: 25° C.
Protocol: The studies were undertaken using Dynamic Vapour Sorption Apparatus (DVS, Surface Measurement Systems, London UK). The apparatus consists of Cahn micobalance housed inside a temperature-controlled cabinet. All experiments were performed at 25° C. The DVS was used to characterize the moisture uptake (w/w %) at different relative humidities (RH). Samples (5-10 mg) were weighed directly into the DSV sample cup and exposed to different relative humidities.

[2] = Chemical stability of the salt forms; format: physicochemical; settings: compared with the hydrochloride salt of WO 03/082853
Description: The term “chemical stability” means that the compound can be stored in an isolated form, or in the form of a formulation in which it is provided in admixture with pharmaceutically acceptable carriers, diluents or adjuvants (e.g., in an oral dosage form, such as tablet, capsule, etc.), under normal storage conditions, with little or no chemical degradation or decomposition.

[3] = 40% relative humidity (RH), citrate
[4] = 60% relative humidity (RH), citrate
[5] = 80% relative humidity (RH), citrate

SMILES	hygroscopicity (in words) ([1]; listed as citrate salt of 2-hydroxy-3-[5-(morpholin-4-ylmethyl)pyridin-2-yl]1H-indole-5-ca)	chemical stability (in words) [2]	moisture uptake [1, 3] [w/w %]	moisture uptake [1, 4] [w/w %]	moisture uptake [1, 5] [w/w %]	hygroscopicity (in words) ([1]; citrate)
N#Cc1ccc2[nH]c(O)c(-c3ccc(CN4CCOCC4)cn3)c2c1.O=C(O)CC(O)(CC(=O)O)C(=O)O [2-hydroxy-3-[5-(morpholin-4-ylmethyl)pyridin-2-yl]1H-indole-5-carbonitrile citrate]	lower hygroscopicity than the hydrochloride salt	improved chemical stability over the hydrochloride salt				
N#Cc1ccc2[nH]c(O)c(-c3ccc(CN4CCOCC4)cn3)c2c1.O=C(O)CC(O)(CC(=O)O)C(=O)O [Citrate Form D, 2-Hydroxy-3-[5-(morpholin-4-ylmethyl)pyridin-2-yl]1H-indole-5-carbonitrile citrate]			3.2	3.6	3.7	
N#Cc1ccc2[nH]c(O)c(-c3ccc(CN4CCOCC4)cn3)c2c1.O=C(O)CC(O)(CC(=O)O)C(=O)O [Citrate Form E, 2-Hydroxy-3-[5-(morpholin-4-ylmethyl)pyridin-2-yl]1H-indole-5-carbonitrile citrate]			0.45	0.52	0.60	very low hygroscopicity
